From US20240415918A1, “Polypeptide and its use as a CCK receptor agonist/antagonist” (Centre for Regenerative Medicine & Health, Hong Kong …, priority 2021, published 2024)
*1 amine or outer side, *2 acyl side, *3 side chain or, on linkers, in order; H or OH if unused. Where a SMILES comes first, the peptide text is derived from it. [ ]: non-standard residue; d: D form. dTrp(6-OH) = N[C@H](Cc1c[nH]c2cc(O)ccc12)C(=O)O; dTrp(2-Me) = Cc1[nH]c2ccccc2c1C[C@@H](N)C(=O)O; Phe(3-Br) = N[C@@H](Cc1cccc(Br)c1)C(=O)O; Aad = N[C@@H](CCCC(=O)O)C(=O)O; Suc = O=C(CCC(=O)[*:2])[*:1]; Nle = CCCC[C@H](N)C(=O)O

Key:
[1] = biological target: T1, CCK-B receptors (CHO-CCK) (Homo sapiens, UniProt P32239); experiment: Calcium flux (Fluo-8) antagonist test on CHO-CCK model cells in presence of CCK8; format: cell-based
T1 construct: expressed in transfected cells; host or cells: CHO (CHO-CCK model cells)
T1 sequence (P32239 1-447): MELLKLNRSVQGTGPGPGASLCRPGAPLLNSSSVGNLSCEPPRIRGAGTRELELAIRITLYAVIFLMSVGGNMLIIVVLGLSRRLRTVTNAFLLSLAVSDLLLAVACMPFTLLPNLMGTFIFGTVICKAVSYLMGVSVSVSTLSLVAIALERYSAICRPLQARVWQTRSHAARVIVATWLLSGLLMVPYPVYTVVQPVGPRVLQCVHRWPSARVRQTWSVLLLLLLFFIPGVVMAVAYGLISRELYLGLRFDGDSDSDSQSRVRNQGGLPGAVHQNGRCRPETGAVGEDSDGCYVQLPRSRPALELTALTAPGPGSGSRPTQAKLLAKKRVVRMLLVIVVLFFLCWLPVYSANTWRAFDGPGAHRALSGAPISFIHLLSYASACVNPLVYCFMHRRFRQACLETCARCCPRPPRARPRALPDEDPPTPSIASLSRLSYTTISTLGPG
Description: The compound was formulated to a 10 mM mother liquor with DMSO, and then diluted into a series of 9 concentrations with a 3-fold gradient to form a 1000× stock solution. […] Prepare 1×Fluo-8 analysis buffer: mix 9 mL of HHBS, 1 mL of 10× Pluronic F127 Plus and 20 μL of Fluo-8 thoroughly for later use. • 3. Add Fluo-8 dye working solution to the cell plate, 100 μL/well. First incubate in a 37° C. incubator for 30 min, and then take it out and incubate at room temperature in the dark for 30 min. • 4. In the process of incubating cells, the compounds to be detected were prepared with HHBS. • 5. […] The agonism/antagonism EC50 of the compound can be obtained by plotting the fitting curve with the agonism/antagonism percentage as Y-axis and the concentration of the compound as X-axis.

[2] = biological target: T1, CCK-B receptors (CHO-CCK); experiment: Calcium flux (Fluo-8) agonist test on CHO-CCK model cells; format: cell-based; conditions: for EC50: CHO-CCK cells; for Agonistic Activity (%) at 10 μM: compound at 10 μM, percentage of signal of 20 nM CCK8 alone
Outline: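 Agonist-mode Fluo-8 calcium flux read on CHO-CCK cells after dye loading 30 min at 37 °C plus 30 min at room temperature.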

[3] = compound together with 10 nM CCK8
[4] = compound alone, 100% = 20 nM CCK8
[5] = in presence of 10 nM CCK8, bound in μM
[6] = Fluo-8 calcium flux, 100% control = 20 nM CCK8
[7] = Fluo-8 calcium flux, bound in μM

| SMILES | EC50 [1, 3] [µM] | EC50 [2, 6] [µM] | EC50 ([1]; in presence of 10 nM CCK8) [µM] | other results |
| --- | --- | --- | --- | --- |
| CSCC[C@H](NC(=O)[C@@H](Cc1c[nH]c2ccccc12)NC(C)=O)C(=O)N[C@@H](Cc1c[nH]cn1)C(=O)N[C@@H](Cc1cccc(Br)c1)C(N)=O [HT-189, Ac-D-Trp-Met-His-Phe(3-Br)-NH2] (Ac-[dW]MH[Phe(3-Br)]-NH2) | 5.95 |  |  | EC50 [2, 4]: 1.99 µM |
| CCCC[C@H](NC(=O)[C@@H](Cc1c(C)[nH]c2ccccc12)NC(C)=O)C(=O)N[C@@H](CCCC(=O)O)C(=O)N[C@@H](Cc1cccc(Br)c1)C(N)=O [HT-262, Ac-(2-Me-Trp)-Nle-Aa-Phe(3 Br)-NH2] (Ac-[dTrp(2-Me)][Nle][Aad][Phe(3-Br)]-NH2) |  | 1.18 |  | EC50 [1, 5]: > 10 µM |
| CCCC[C@H](NC(C)=O)C(=O)NCC(=O)N[C@@H](Cc1c[nH]c2ccccc12)C(=O)N[C@@H](CCSC)C(N)=O [HT-212, Ac-Nle-Gly-Trp-Met-NH2] (Ac-[Nle]GWM-NH2) |  |  |  | EC50 [1, 5]: > 10 µM; EC50 [2, 7]: > 10 µM |
| CCCC[C@H](NC(=O)[C@@H](Cc1c[nH]c2ccccc12)NC(=O)CNC(=O)CCC(=O)O)C(=O)N[C@@H](CC(=O)O)C(=O)N[C@@H](Cc1cccc(Br)c1)C(N)=O [HT-202, (Suc)-Gly-D-Trp-Nle-Asp-Phe(3-Br)-NH2] (Suc-G[dW][Nle]D[Phe(3-Br)]-NH2) |  | 0.0051 | 0.192 |  |
| CCCC[C@H](NC(=O)[C@@H](Cc1c(C)[nH]c2ccccc12)NC(C)=O)C(=O)N[C@@H](CC(=O)O)C(=O)N[C@@H](Cc1cccc(Br)c1)C(N)=O [HT-231, Ac-(2-Me-Trp)-Nle-Asp-Phe(3-Br)-NH2] |  | 0.252 | 1.43 |  |
| C[S+]([O-])CC[C@H](NC(=O)[C@H](N)Cc1c[nH]c2ccccc12)C(=O)N[C@@H](CC(=O)O)C(=O)N[C@@H](Cc1cc(Cl)cc(Cl)c1)C(N)=O (stereo partly drawn) [HT-55, D-Trp-Met(O)-Asp-Phe(3,5-DiCl)-NH2] | 1.79 |  |  | EC50 [2, 4]: 1.65 µM; Agonistic Activity (%) at 10 μM [2]: 62.28% |
| CC(=O)N[C@H](Cc1c[nH]c2ccccc12)C(=O)N[C@@H](CCC(N)=O)C(=O)N[C@@H](CC(=O)O)C(=O)N[C@@H](Cc1cccc(Br)c1)C(N)=O [HT-184, Ac-D-Trp-Glu-Asp-Phe(3-Br)-NH2] | 4.41 |  |  | EC50 [2, 4]: 4.32 µM |
| CCCC[C@H](NC(=O)[C@@H](Cc1c[nH]c2ccccc12)N(C)C(=O)CN(C)C(=O)OCC1c2ccccc2-c2ccccc21)C(=O)N[C@@H](CC(=O)O)C(=O)N[C@@H](Cc1cccc(Br)c1)C(N)=O [HT-252, Fmoc-(N-Me-Gly)-(N-Me-Trp)-Nle-Asp-Phe(3-Br)-NH2] |  | 0.255 | 1.03 |  |
| CCCC[C@H](NC(=O)[C@@H](Cc1cccc(Br)c1)NC(C)=O)C(=O)N[C@@H](CC(=O)O)C(=O)N[C@@H](Cc1cccc(Br)c1)C(N)=O [HT-236, Ac-Phe(3-Br)-Nle-Asp-Phe(3-Br)-NH2] |  | 0.0977 | 0.357 |  |
| CCCC[C@H](NC(=O)[C@@H](Cc1cccc(Br)c1)NC(C)=O)C(=O)N[C@@H](CCC(=O)O)C(=O)N[C@@H](Cc1cccc(Br)c1)C(N)=O [HT-237, Ac-Phe(3-Br)-Nle-Glu-Phe(3-Br)-NH2] |  |  |  | EC50 [1, 5]: > 10 µM; EC50 [2, 7]: > 10 µM |
| CSCC[C@H](NC(=O)[C@@H](Cc1c[nH]c2ccccc12)NC(=O)[C@H](CCC(=O)O)NC(=O)[C@H](CC(C)C)NC(=O)CNC(=O)[C@H](Cc1c[nH]cn1)NC(=O)[C@H](CO)NC(=O)CNC(=O)[C@H](CCCCN)NC(=O)[C@H](CCCNC(=N)N)NC(=O)[C@H](CCCNC(=N)N)NC(=O)[C@H](Cc1c[nH]cn1)NC(=O)[C@H](CCCCN)NC(=O)[C@@H](NC(C)=O)[C@@H](C)O)C(=O)N[C@@H](CC(=O)O)C(=O)N[C@@H](Cc1cccc(Br)c1)C(N)=O [HT-220] (Ac-TKHRRKGSHGLE[dW]MD[Phe(3-Br)]-NH2) |  | 8.39 | 2.88 |  |
| C[S+]([O-])CC[C@H](NC(=O)[C@H](N)Cc1c[nH]c2ccccc12)C(=O)N[C@@H](CC(=O)O)C(=O)N[C@@H](Cc1ccccc1F)C(N)=O (stereo partly drawn) [HT-42, D-Trp-Met(O)-Asp-Phe(2-F)-NH2] | 8.41 |  |  | Agonistic Activity (%) at 10 μM [2]: 17.97% |
| CSCC[C@H](NC(=O)[C@@H](Cc1c[nH]c2ccccc12)NC(C)=O)C(=O)N[C@@H](CC(C)C)C(=O)N[C@@H](Cc1cccc(Br)c1)C(N)=O [HT-190, Ac-D-Trp-Met-Leu-Phe(3-Br)-NH2] (Ac-[dW]ML[Phe(3-Br)]-NH2) | 6.16 |  |  | EC50 [2, 4]: 4.75 µM |
| CSCC[C@H](NC(=O)[C@H](Cc1c[nH]c2ccccc12)NC(C)=O)C(=O)N[C@@H](CC(=O)O)C(=O)N[C@@H](CC(C)C)C(N)=O [HT-192, Ac-Trp-Met-Asp-Leu-NH2] (Ac-WMDL-NH2) | 8.76 |  |  | EC50 ([2]; compound alone, bound in μM): > 10 µM |
| CCCC[C@H](NC(=O)[C@@H](Cc1c(C)[nH]c2ccccc12)NC(C)=O)C(=O)N[C@@H](CC(=O)O)C(=O)N[C@@H](Cc1c(C)[nH]c2ccccc12)C(N)=O [HT-235, Ac-(2-Me-Trp)-Nle-Asp-(2-Me-Trp)-NH2] |  |  |  | EC50 [1, 5]: > 10 µM; EC50 [2, 7]: > 10 µM |
| CCCC[C@H](NC(=O)[C@H](Cc1c[nH]c2ccccc12)NC(C)=O)C(=O)N[C@@H](CC(=O)O)C(=O)N[C@@H](Cc1c(C)[nH]c2ccccc12)C(N)=O [HT-229, Ac-D-Trp-Nle-Asp-(2-Me-Trp)-NH2] |  | 8.2 |  | EC50 [1, 5]: > 10 µM |
| CCCC[C@H](NC(=O)[C@H](Cc1c[nH]c2ccccc12)NC(=O)CNC(C)=O)C(=O)N[C@@H](CC(=O)O)C(N)=O [HT-214, Ac-Gly-Trp-Nle-Asp-NH2] (Ac-GW[Nle]D-NH2) |  |  |  | EC50 [1, 5]: > 10 µM; EC50 [2, 7]: > 10 µM |
| CS(=O)(=O)CC[C@H](NC(=O)[C@H](N)Cc1c[nH]c2ccccc12)C(=O)N[C@@H](CC(=O)O)C(=O)N[C@@H](Cc1cc(Cl)cc(Cl)c1)C(N)=O [HT-72, D-Trp-Met(O2)-Asp-Phe(3,5-DiCl)-NH2] | 2.62 |  |  | EC50 [2, 4]: 1.51 µM; Agonistic Activity (%) at 10 μM [2]: 82.71% |
| CSCC[C@H](NC(=O)[C@H](N)Cc1c[nH]c2ccccc12)C(=O)N[C@@H](CC(=O)O)C(=O)N[C@@H](Cc1ccc(Br)cc1)C(N)=O [HT-34, D-Trp-Met-Asp-Phe(4-Br)-NH2] | 2.25 |  |  | EC50 [2, 4]: 0.369 µM; Agonistic Activity (%) at 10 μM [2]: 98.24% |
| CCCC[C@H](NC(=O)[C@@H](Cc1cn(C)c2ccccc12)NC(C)=O)C(=O)N[C@@H](CC(=O)O)C(=O)N[C@@H](Cc1cn(C)c2ccccc12)C(N)=O [HT-232, Ac-(1-Me-Trp)-Nle-Asp-(1-Me-Trp)-NH2] |  | 0.376 | 3.28 |  |
| COC(=O)C[C@H](NC(=O)[C@H](CCSC)NC(=O)[C@H](N)Cc1c[nH]c2ccccc12)C(=O)N[C@@H](Cc1cccc(I)c1)C(N)=O [HT-79, D-Trp-Met-Asp(Ome)-Phe(3-I)-NH2] | 1.99 |  |  | EC50 [2, 4]: 2.29 µM; Agonistic Activity (%) at 10 μM [2]: 38.37% |
| CSCC[C@H](NC(=O)[C@H](N)Cc1c[nH]c2ccccc12)C(=O)N[C@@H](CC(=O)O)C(=O)N[C@@H](Cc1ccc(C)cc1)C(N)=O [HT-30, D-Trp-Met-Asp-Phe(4 Me)-NH2] | 0.683 |  |  | EC50 [2, 4]: 0.0932 µM; Agonistic Activity (%) at 10 μM [2]: 88.74% |
| CCCC[C@H](NC(=O)[C@H](Cc1c[nH]c2ccccc12)NC(C)=O)C(=O)N[C@@H](CCC(=O)O)C(=O)N[C@@H](Cc1cn(C)c2ccccc12)C(N)=O [HT-241, Ac-D-Trp-Nle-Glu-(1-Me-Trp)-NH2] |  | 3.55 |  | EC50 [1, 5]: > 10 µM |
| CCCC[C@H](NC(=O)[C@@H](Cc1cn(C)c2ccccc12)NC(C)=O)C(=O)N[C@@H](CCC(=O)O)C(=O)N[C@@H](Cc1cn(C)c2ccccc12)C(N)=O [HT-245, Ac-(1-Me-Trp)-Nle-Glu-(1-Me-Trp)-NH2] |  |  | 1.76 | EC50 [2, 7]: > 10 µM |
| CSCC[C@H](NC(=O)[C@H](Cc1c[nH]c2ccccc12)NC(C)=O)C(=O)N[C@@H](CC(=O)O)C(=O)N[C@@H](CCC(=O)O)C(N)=O [HT-196, Ac-Trp-Met-Asp-Glu-NH2] |  |  |  | EC50 [1, 5]: > 10 µM; EC50 [2, 7]: > 10 µM |
| CCCC[C@H](NC(=O)[C@@H](Cc1c[nH]c2cc(O)ccc12)NC(C)=O)C(=O)N[C@@H](CC(=O)O)C(=O)N[C@@H](Cc1cccc(Br)c1)C(N)=O [HT-227, Ac-(5-HTP)-Nle-Asp-Phe(3-Br)-NH2] (Ac-[dTrp(6-OH)][Nle]D[Phe(3-Br)]-NH2) |  | 0.022 | 3.4 |  |
| CCCC[C@H](NC(=O)[C@@H](Cc1c(C)[nH]c2ccccc12)NC(C)=O)C(=O)N[C@@H](CCC(=O)O)C(=O)N[C@@H](Cc1c(C)[nH]c2ccccc12)C(N)=O [HT-248, Ac-(2-Me-Trp)-Nle-Glu-(2-Me-Trp)-NH2] |  | 0.0331 | 0.47 |  |
